Reference: patent US20200390755A1, “COMPOUND FOR TREATING NERVOUS SYSTEM DISEASES AND USE THEREOF” (SHAANXI MICOT TECHNOLOGY CO., LTD., priority 2018, published 2020)

Assays:
[1] = test system: rats with permanent cerebral ischemia; assay: Neurobehavioral scoring in rats with permanent cerebral ischemia (MCAO thread plug); assay type: in vivo, SD rats; details: 20 mg/kg by gavage
Procedure: SD rats, male, about 220-250 g, were provided by the Experimental Animal Center of Medical College of Xi'an Jiaotong University. Rats were randomly divided into groups of 14 animals/group. The experiment included a sham group, a model group, a positive control Edaravone group and test compound groups 1-5.12 hours before the operation, the rats were fasted and were free to drink water, and then used for the modeling method of middle cerebral artery occlusion with thread plug. The rats were fixed on a wooden board after anesthesia, the common carotid artery was ligated proximally, the external carotid artery was ligated distally, and the main internal carotid artery into skull was retained. A ligature line was reserved at the bifurcation of the internal carotid artery for temporarily clamping the distal end of the internal carotid artery using an arterial clip. A 3-0 nylon thread with a length of 5 cm and a spherical shape with a diameter of 0.3 mm at the tip was inserted into the common carotid artery through a small incision at the bifurcation. The arterial clamp was loosened, and the thread plug was slowly advanced to 18˜20 mm. When there was resistance, the progress of the thread was stopped. At this time, the nylon thread plug entered the middle artery and blocked the blood flow, and then the ischemic phase began. The skin was sutured. In the sham operation group, the same procedure was executed, except that no thread plug was inserted.
Administering was performed at 0 h, 3 h, 6 h and 12 h after ischemia, and then administering was performed once a day for 7 consecutive days. The test compound was prepared into a 4 mg/mL solution with 1% CMC-Na solution and administered by gavage. The edaravone group received an intravenous dose of 0.078 mg/kg.
2) The rats were lifted at its tail about 1 foot off the ground to observe the condition of both forelimbs. The rats were placed on a level ground and pushed on both shoulders to observe the difference in resistance on both sides. The rats were placed on the ground to observe the walking. The assessment was conducted using a five-grade four-point scoring method (0 to 4 points). The higher the score, the more severe the neurobehavioral damage.
0 point: the behavior is completely normal;
1 point: when the rat is lifted at its tail off the ground, the forelimb on the opposite side of the operation rotates and folds inwardly.
2 points: when the rat is placed on a level ground and pushed on both shoulders to observe the difference in resistance on both sides, the resistance on the opposite side of the operation reduces;
3 points: when the rat is placed on the ground to the walking, it circles around the opposite side of the operation;
4 points: The injury is so severe that the rat is unable to move independently.
(2) Statistical analysis of data: SPSS18.0 statistical software was used for statistical analysis and the data of each group was expressed as the mean standard error (x±SEM). One-way ANOVA and multiple comparisons between groups were used to compare the averages of measurement data among multiple groups. Rank score test was used for behavioral grading data, and Kaplan-Meier method was used for mortality. P<0.05 was considered statistically significant.

N171-82Q HD mice = assay: Rotarod experiment, HD mice; assay type: in vivo, mouse; details: 5 mg/kg/d intragastric
Procedure: 7-week-old N171-82Q HD male mice were paired with female B6C3F1/J hybrid mice to obtain newborn mice. From 21 days of age, male mice were housed in separate cages. 0.5 cm of mouse tail tissue was removed to extract DNA to determine the genotype of the mouse, such that N171-82Q HD mice and WT mice needed for the experiment were obtained. The mice were randomly divided into WT Vehicle group (normal mice), WT test compound group (administration group of normal mice, 5 mg/kg/d, n=10), HD Vehicle group (blank group of HD mice, n=15), HD test compound group (administration groups 1-5 of HD mice, 5 mg/kg/d, n=10). The test compound was suspended in 1% CMC-Na solution and administered by intragastric administration until the end of the study. The weights of the mice were measured every week. Behavioral tests were performed at 12 weeks, 18 weeks, and 24 weeks of age to investigate motor function. At 20 weeks, 3 samples of tissue from each group were used for western blotting and immunohistochemistry. At 24 weeks, MRI scans were performed. At the end of the study, the effect of the test compound on the mortality of mice was evaluated.
The software Sigmaplot 13.0 was used for statistical analysis of the data, and the data of each group was expressed as mean standard error (x±SEM). Behavioral test results were analyzed using two-way (genotype and processing factor) ANOVA and post-ho tests, the comparison and statistics of weight data were performed using two-way (genotype and age) ANOVA of repeated measures, and mortality was counted using Kaplan-Meier method. Other measurement data were analyzed by one-way ANOVA. P<0.05 was considered statistically significant.
The motor function of mice was evaluated by the rotarod experiment and three types of balance beam experiments. The shorter the time for mouse to cross the balance beam, and the longer the time to drop, the stronger the coordination ability of the mouse.
The maximum time for mice fatigue rotarod was set to 5 minutes, and the acceleration was set from 4 rpm up to 40 rpm. Time record was began when the mouse was placed on the rotarod. The time the mouse remained on the rod, i.e., drop latent period, was recorded to indicate its motor coordination ability. One day before the rotarod experiment, each mouse was trained for 5 minutes, and then rested in the cage after the training session. On the day of the experiment, the mice were placed on the rotating rotarod for three rounds of tests, with a 30-minute rest between tests before entering the next round of test. The result was the average of the three tests.

SMILES | Neurobehavioral score (0 to 4 points) ([1]; 6 h after ischemia) | Neurobehavioral score (0 to 4 points) ([1]; 1 d after ischemia) | Neurobehavioral score (0 to 4 points) ([1]; 2 d after ischemia) | Neurobehavioral score (0 to 4 points) ([1]; 3 d after ischemia) | Neurobehavioral score (0 to 4 points) ([1]; 4 d after ischemia) | Neurobehavioral score (0 to 4 points) ([1]; 5 d after ischemia) | Neurobehavioral score (0 to 4 points) ([1]; 6 d after ischemia) | Neurobehavioral score (0 to 4 points) ([1]; 7 d after ischemia) | Time to drop (drop latent period), rotarod (N171-82Q HD mice; 12 w) | Time to drop (drop latent period), rotarod (N171-82Q HD mice; 18 w) | Time to drop (drop latent period), rotarod (N171-82Q HD mice; 24 w)
O=c1cc(-c2ccc(N3CCCCC3)cc2)oc2c(O)c(O)ccc12 [Example 1, 7,8-dihydroxy-2-(4-(piperidin-1-yl)phenyl)-4H-chromen-4-one] | 2.07 ± 0.22 | 2.11 ± 0.2 | 1.88 ± 0.35 | 2.13 ± 0.23 | 1.88 ± 0.35 | 2 ± 0.38 | 1.86 ± 0.34 | 1.17 ± 0.17 | 95.90 ± 23.32 s | 101.03 ± 32.39 s | 83.55 ± 29.07 s
COc1ccc2c(=O)cc(-c3ccc(N4CCCCC4)cc3)oc2c1OC [Example 2, 7,8-dimethoxy-2-(4-(piperidin-1-yl)phenyl)-4H-chromen-4-one] | 2.13 ± 0.17 | 2.04 ± 0.13 | 2.20 ± 0.25 | 1.98 ± 0.45 | 1.87 ± 0.27 | 2.11 ± 0.16 | 1.79 ± 0.28 | 1.21 ± 0.22 | 98.89 ± 21.35 s | 107.40 ± 27.48 s | 89.67 ± 30.76 s
CN(C)C1CCN(c2ccc(-c3cc(=O)c4ccc(O)c(O)c4o3)cc2)CC1 [Example 3, 2-(4-(4-(dimethylamino)piperidin-1-yl)phenyl)-7,8-dihydroxy-4H-chromen-4-one] | 1.98 ± 0.25 | 2.23 ± 0.34 | 1.91 ± 0.26 | 1.87 ± 0.33 | 1.74 ± 0.26 | 1.63 ± 0.20 | 1.78 ± 0.34 | 1.01 ± 0.27 | 94.15 ± 30.15 s | 103.40 ± 37.86 s | 90.06 ± 33.45 s
CC1(C)CCN(c2ccc(-c3cc(=O)c4ccc(O)c(O)c4o3)cc2)CC1 [Example 4, 2-(4-(4,4-dimethylpiperidin-1-yl)phenyl)-7,8-dihydroxy-4H-chromen-4-one] | 2.23 ± 0.36 | 1.99 ± 0.36 | 1.85 ± 0.45 | 2.23 ± 0.36 | 1.54 ± 0.27 | 1.78 ± 0.11 | 1.68 ± 0.27 | 1.12 ± 0.23 | 95.09 ± 27.23 s | 99.86 ± 30.27 s | 79.15 ± 34.17 s
CC1CC(C)CN(c2ccc(-c3cc(=O)c4ccc(O)c(O)c4o3)cc2)C1 (stereo not shown) [Example 5, 2-(4-(3,5-dimethylpiperidin-1-yl)phenyl)-7,8-dihydroxy-4H-chromen-4-one] | 2.03 ± 0.29 | 1.86 ± 0.44 | 1.75 ± 0.25 | 1.94 ± 0.23 | 1.85 ± 0.34 | 1.93 ± 0.20 | 1.72 ± 0.44 | 1.19 ± 0.30 | 98.19 ± 29.17 s | 101.03 ± 32.39 s | 81.71 ± 30.15 s
